Common to all, as to assay type: physicochemical
A short description of series [1]: Partition coefficient in HEMA/MAA copolymer gels of various compositions. The procedure: Gels of […] were synthesized using 2 mL monomer solution, 2.7 mL of water, 10 μL of ethylene glycol dimethacrylate as crosslinker, and 6 mg of Darocur TPO as a photoinitiator. The monomer solution had different fractions of HEMA and MAA (i.e. 60% MAA would be 1.2 mL MAA and 0.8 mL HEMA). Gels were cured under UV light in 100 micron thick molds and subsequently cut into pieces approximately 50 mg in mass. Some gels were loaded with BAK to give a 3× (or 300 ppm) initial concentration and placed into 3 mL solution (either 0.025% Bimatoprost/PBS 1× or 0.2% BAK/PBS). The concentrations in solution were measured using UV-vis spectrophotometry. Upon achieving equilibrium, the gels were placed in 3 mL blank PBS, and release was monitored by UV-vis spectrophotometry. Uptake and release equilibrium concentrations were used to calculate partition coefficients. FIGS. 28 and 29 are plots of the partition coefficient for Bimatoprost and BAK for various gel copolymer compositions.

The nature of series [2]: Partition coefficient in macroporous pHEMA hydrogel. Particulars: for Partition coefficient: 250 mg gel in 12 mL PBS solution, 15 days, mean ± SD, n=3. The procedure:
As indicated above, the absorption percentage of hydrophilic drug is small, whereas a significant amount of hydrophobic drug is uptake by the macroporous pHEMA gel. The high affinity of hydrophobic drug to the gel can be determined by measuring the partition coefficient of the drug in the gel. To measure the partition coefficient, a piece of macroporous pHEMA gel of 250 mg was soaked in 12 mL of drug or BAK solution. After 15 days of soaking, the concentration of the drug or BAK solution was measured by using UV-Vis spectrophotometry. The drug or BAK concentration after soaking indicated the amount of drug or BAK in reference to the initial concentration is that absorbed into the gel. The partition coefficient of timolol and dorzolamide in macroporous pHEMA gel is roughly 15 times smaller than that of BAK, which is excellent separation efficiency. In contrast, the partition coefficients of latanoprost and BAK are pretty high and the separation efficiency of the gel for this mixture is poor.

Series [3] in a line: Partition coefficient in pHEMA particles prepared using SR9035 as cross-linker. Particulars: 100 mg particles in 3.5 mL solution, 9 days. As to the method:
The partition coefficients of timolol, CMC and BAK in pHEMA particles prepared using SR9035 as cross-linker was measured. pHEMA particles (100 mg) were soaked in 3.5 mL of timolol, CMC and BAK solution, which concentration was 0.08 mg/mL, 0.5% and 2.4 mg/mL, respectively. After 9 days of soaking, the concentration of the drug or BAK solution was measured by using UV-Vis spectrophotometry. The drug or BAK concentration after soaking indicated the amount of drug or BAK that absorbed into the gel relative to the initial concentration. The partition coefficient of timolol and CMC in pHEMA particles is much smaller than that of BAK, and should have excellent separation efficiency.

Series [4] can be described thus: Partition and adsorption into pHEMA matrix (general statement).
Series [5] in a line: Partition coefficient of BAK in pHEMA particles prepared by heat-initiated polymerization.
Series [6] can be described thus: Langmuir adsorption isotherm fit of equilibrium interfacial surface tension of BAK solutions. Particulars: Langmuir model fit. As to the method:
An eye drop bottle's plug (tip) was packed with 0.1 g of p-HEMA particles for Timolol Maleate commercial formulation (Sandoz Inc.) and 0.1 g of p-HEMA/MAA particles for Bimatoprost commercial formation (Allegran Inc.). Approximately 0.5 mL of commercial formulation was dosed from the eye drop bottle for each measurement with 0.5 mL of a filtered formulation withdrawn by a standard 3 mL syringe for pendant drop measurements. A drop shape analysis was conducted by the Tensiometer to extract surface tension data of the filtered formulation. A calibration curve with equilibrium interfacial surface tension data as a function of BAK concentration was used to estimate concentrations and fractional BAK removal from the filtered eye drop formulation. Periodic surface tension measurements of the formulations were done to monitor fractional BAK removal.
The steady state Langmuir adsorption isotherm model and Langmuir surface equation of state were used to fit the equilibrium interfacial surface tension data are given below:
[formula] [formula] Where a least square error minimization protocol was used to fit the experimental equilibrium surface tension values and the calculated estimates using the above model. […] Benzalkonium Chloride Removal from Commercial Bimatoprost Formulation (Allegran Inc.)

Counter-ions that a name gives are not always drawn. Marks after values point to notes of the source that are not given here.

Turning to `CCNC(=O)CCC/C=C\C[C@@H]1[C@@H](/C=C/[C@@H](O)CCc2ccccc2)[C@H](O)C[C@@H]1O` [Bimatoprost], the “partitioning between gel and solution (in words)” value in series [1] is reported as “tends to remain in solution”.

`C[C@@H]1C[C@H]2[C@@H]3CCC4=CC(=O)C=C[C@]4(C)[C@@]3(F)[C@@H](O)C[C@]2(C)[C@@]1(O)C(=O)CO` [Dexamethasone, dexamethasone] registered a Partition coefficient in series [2] of 33.53 ± 1.31.

Consider `CCN[C@H]1C[C@H](C)S(=O)(=O)c2sc(S(N)(=O)=O)cc21` [Dorzolamide, dorzolamide hydrochloride], for which, in series [2], the “partition coefficient, times smaller than that of BAK” value is “roughly 15 times” and the Partition coefficient came out at 7.59 ± 0.56.

In turn, `CC(C)OC(=O)CCC/C=C\C[C@@H]1[C@@H](CC[C@@H](O)CCc2ccccc2)[C@H](O)C[C@@H]1O` [Latanoprost, latanoprost] yielded a Partition coefficient in series [2] of 90.18.

Take `CC(C)(C)NC[C@H](O)COc1nsnc1N1CCOCC1` [Timolol, timolol maleate]: the Partition coefficient in series [3] is reported as 5.59 ± 0.13^a. Moreover, in series [2], the “partition coefficient, times smaller than that of BAK” value was “roughly 15 times” and the Partition coefficient amounted to 6.49.

As to Benzalkonium Chloride [BAK], the “adsorption time on pHEMA” value in series [4] (compared with transit time) was < 3 s. The “partition coefficient into pHEMA matrix” value in series [4] (depends on BAK concentration and structure of pHEMA matrix) is 100-500. Moreover, in series [5], the Partition coefficient was 200-250. Besides, the “partitioning between gel and solution (in words)” value in series [1] is on record as “strongly partitions into the gel”. The Partition coefficient in series [3] is given as ~300. In addition, in series [6], the “maximum surface coverage Γ∞ (fit parameter)” value turned out to be 0.003309 mol/m^2 and the “ratio of kinetic rate constants β/α (fit parameter)” value amounted to 462.14 m^3/mol.

The values are drawn from US10786429B2, “Preservative removal from eye drops” (University of Florida Research Foundation, Inc., priority 2016, dated 2020).
